The text below walks through data of article PMC9260081, “Design, Synthesis, and Evaluation of Anticonvulsant Activities of New Triazolopyrimidine Derivatives” (Frontiers in Chemistry, 2022).

pKi: −log10 of the molar value. Read-outs that look alike come from different tables or passages of the source.

One series relates to MES-induced seizures. Nature of the series: Maximal electroshock seizure (MES) test. The class given is in vivo, mice. As to conditions: for minimal effective dose / ED50: Mus musculus, ip; for minimal effective dose: dosages 30, 100, 300 mg/kg, read-out: MES screening, minimum dose whereby bioactivity was demonstrated in half or more of the mice; for ED50: read-out: ED50 MES; for PI MES, protective index (TD50/ED50): TD50 rotarod / ED50 MES, mice i.p. On the procedure: (§1) Male Kunming mice with weights from 18 to 22 g were used in all the pharmacological experiments. The mice were housed in the standard cages with 10 each, where a controlled temperature (25°C ± 2°C) with a 12 h light/dark cycle was maintained. All animals had free access to food and water. All experiments and procedures involving animals were carried out according to the Guide for the Care and Use of Laboratory Animals (National Academies Press, Washington, D.C., United States). Approval from the local medical ethical committee was obtained before the experiment.
In the MES test, mice were subjected to ear stimulation using a 0.2 s 60-Hz 50-mA alternating current to elicit seizures. Tonic hind limb extension was considered as the seizure occurring, and the vanishing of tonic hind limb extension indicates the protection against the MES-induced seizures. Mice were injected intraperitoneally with test compounds at doses of 300, 100, and 30 mg/kg to evaluate their general anticonvulsant activity. Half and 4 h intervals were chosen to test the anti-MES activity. […] A series of doses of the tested compounds were injected into the mice with 10 in one group.
Background: The maximal electroshock test induces tonic seizures with an electrical stimulus.

For series [1], the system named is ability to maintain equilibrium on rotating rod. Nature of the series: Neurotoxicity screening (rotarod test). It counts as in vivo. The settings on record: i.p., dosages 30, 100, 300 mg/kg. The method, then: as §1
(§2) The rotarod test was used to evaluate the neurotoxicity of the synthesized compounds. Before the formal experiments, mice were trained to climb on a rotating rod of diameter 3.2 cm with the rotation speed of 10 rpm. Test compounds in the three doses were intraperitoneally injected into the trained mice. […] The rough neurotoxic dose was obtained in which mice cannot maintain equilibrium on the rod for at least 1 min. The quantitative neurotoxic dose (TD50) of the test compounds was measured and calculated with the same method described in the MES test.
(In the rotarod test animals must keep their balance on a rotating rod.)

A short description of series [2]: Neurotoxicity screening (rotarod test). The class given is in vivo. The settings on record: male, Kunming, mouse, in vivo, ip; rotarod, mice; 95% confidence interval in brackets. On the procedure: as §1, §2
The test system of another series is PTZ-induced seizures. Nature of the series: Subcutaneous pentylenetetrazole (PTZ) test. The settings on record: ip; for minimal effective dose / ED50: Mus musculus; for minimal effective dose: dosages 30, 100, 300 mg/kg, read-out: PTZ screening, minimum dose whereby bioactivity was demonstrated in half or more of the mice; for ED50: read-out: ED50 scPTZ; for PI scPTZ, protective index (TD50/ED50): male, Kunming, mouse, in vivo. It counts as in vivo, mice. The method, then: as §1
In the PTZ test, mice were subcutaneously administered with PTZ at the dose of 85 mg/kg. At this dose, mice can be elicited a threshold seizure characterized by an episode of clonic spasms and tonic spasms. After being treated with test compounds at doses of 300, 100, and 30 mg/kg, the mice were considered protected if a single episode of clonic spasms of more than 5 s duration was not obtained. The quantitative anticonvulsant activity (ED50) in the PTZ model was determined and calculated with the same method described in the MES test.

The target of the next series is GABAA BZD receptor. Nature of the series: Radioligand receptor binding assay ([3H]-flumazenil competition). As to conditions: rat brain membranes.
Where [3] appears, read: mice, 95% confidence interval in brackets.

In the case of `CCCCCOc1ccc(-c2ccnc3ncnn23)cc1` [Compound 6c, 7-(4-(Pentyloxy)phenyl)-[1,2,4]triazolo[1,5-a]pyrimidine], the minimal effective dose with MES-induced seizures (mice, 0.5 h after injection) is 30 mg/kg; in the series on MES-induced seizures (mice, 4 h after injection), 300 mg/kg; with PTZ-induced seizures (mice, 0.5 h after injection), 30 mg/kg; in the series with PTZ-induced seizures (mice, 4 h after injection), above 300 mg/kg. The values for the ED50 in the series on MES-induced seizures (setting [3]) and with PTZ-induced seizures (setting [3]) were 25.3 mg/kg and 23.7 mg/kg, respectively. For the same compound, the “PI MES, protective index (TD50/ED50)” value in the series with MES-induced seizures turned out to be 15.0. The “NT screening (rotarod), minimum neurotoxic dose in half or more of the mice” value (“NT screening (rotarod)” below) is “— (A dash indicates the absence of anticonvulsant activity and neurotoxicity at the maximum dose administered (300 mg/kg))” in series [1] (0.5 h after injection); “— (A dash indicates the absence of anticonvulsant activity and neurotoxicity at the maximum dose administered (300 mg/kg))” in series [1] (4 h after injection). Besides, in series [2], the TD50 (commonly the dose at which the toxic effect under study appears in half of the subjects) at 30 min was 380 mg/kg. Besides, in the series on PTZ-induced seizures, the “PI scPTZ, protective index (TD50/ED50)” value is reported as 16.0.

Turning to `CCCOc1ccc(-c2ccnc3ncnn23)cc1` [Compound 6a, 7-(4-Propoxyphenyl)-[1,2,4]triazolo[1,5-a]pyrimidine], the minimal effective dose in the series with MES-induced seizures (mice, 0.5 h after injection) was 300 mg/kg; with MES-induced seizures (mice, 4 h after injection), above 300 mg/kg; with PTZ-induced seizures (mice, 0.5 h after injection), 300 mg/kg; with PTZ-induced seizures (mice, 4 h after injection), above 300 mg/kg. Moreover, the “NT screening (rotarod)” value is “— (A dash indicates the absence of anticonvulsant activity and neurotoxicity at the maximum dose administered (300 mg/kg))” in series [1] (0.5 h after injection); “— (A dash indicates the absence of anticonvulsant activity and neurotoxicity at the maximum dose administered (300 mg/kg))” in series [1] (4 h after injection).

Turning to `Brc1ccc(-c2ccnc3ccnn23)cc1` [Compound 4f, 7-(4-Bromophenyl)pyrazolo[1,5-a]pyrimidine], the minimal effective dose with MES-induced seizures (mice, 0.5 h after injection) is above 300 mg/kg; in the series with MES-induced seizures (mice, 4 h after injection), above 300 mg/kg; in the series on PTZ-induced seizures (mice, 0.5 h after injection) it was above 300 mg/kg; with PTZ-induced seizures (mice, 4 h after injection), above 300 mg/kg. The “NT screening (rotarod)” value in series [1] (0.5 h after injection) was “— (A dash indicates the absence of anticonvulsant activity and neurotoxicity at the maximum dose administered (300 mg/kg))”; in series [1] (4 h after injection), “— (A dash indicates the absence of anticonvulsant activity and neurotoxicity at the maximum dose administered (300 mg/kg))”.

On to `O=[N+]([O-])c1ccc(-c2ccnc3ncnn23)cc1` [Compound 3g, 7-(4-Nitrophenyl)-[1,2,4]triazolo[1,5-a]pyrimidine], for which the minimal effective dose is above 300 mg/kg with MES-induced seizures (mice, 0.5 h after injection); above 300 mg/kg in the series with MES-induced seizures (mice, 4 h after injection); above 300 mg/kg with PTZ-induced seizures (mice, 0.5 h after injection); above 300 mg/kg in the series with PTZ-induced seizures (mice, 4 h after injection). Further, the “NT screening (rotarod)” value was “— (A dash indicates the absence of anticonvulsant activity and neurotoxicity at the maximum dose administered (300 mg/kg))” in series [1] (0.5 h after injection); “— (A dash indicates the absence of anticonvulsant activity and neurotoxicity at the maximum dose administered (300 mg/kg))” in series [1] (4 h after injection).

Regarding `CN1C(=O)CN=C(c2ccccc2)c2cc(Cl)ccc21` [Diazepam, reference compound], the ED50 (usually the dose at which the effect has come halfway, by size or by number of responders) in the series on MES-induced seizures was 10.1 mg/kg; in the series with PTZ-induced seizures, 0.5 mg/kg. At GABAA BZD receptor (competition with 0.5 nM [3H]-flumazenil, 95% CI in brackets), the IC50 (in general, the point on the concentration scale where inhibition reaches its midpoint) was found to be 1.3 nM. Moreover, at GABAA BZD receptor (competition with [3H]-flumazenil, Cheng–Prusoff), the pKi (as a rule, −log10 of the Ki, conventionally taken in molar units) was 9.21.

Regarding `Cc1ccc(-c2ccnc3ccnn23)cc1` [Compound 4h, 7-(P-tolyl)pyrazolo[1,5-a]pyrimidine], the minimal effective dose is above 300 mg/kg in the series with MES-induced seizures (mice, 0.5 h after injection); above 300 mg/kg with MES-induced seizures (mice, 4 h after injection); 300 mg/kg with PTZ-induced seizures (mice, 0.5 h after injection); above 300 mg/kg in the series on PTZ-induced seizures (mice, 4 h after injection). For the same compound, the “NT screening (rotarod)” value is “— (A dash indicates the absence of anticonvulsant activity and neurotoxicity at the maximum dose administered (300 mg/kg))” in series [1] (0.5 h after injection); “— (A dash indicates the absence of anticonvulsant activity and neurotoxicity at the maximum dose administered (300 mg/kg))” in series [1] (4 h after injection).

On to `Clc1ccc(-c2ccnc3ccnn23)cc1` [Compound 4d, 7-(4-Chlorophenyl)pyrazolo[1,5-a]pyrimidine], for which the minimal effective dose with MES-induced seizures (mice, 0.5 h after injection) is above 300 mg/kg; in the series with MES-induced seizures (mice, 4 h after injection), above 300 mg/kg; with PTZ-induced seizures (mice, 0.5 h after injection), above 300 mg/kg; in the series with PTZ-induced seizures (mice, 4 h after injection), above 300 mg/kg. The “NT screening (rotarod)” value in series [1] (0.5 h after injection) was “— (A dash indicates the absence of anticonvulsant activity and neurotoxicity at the maximum dose administered (300 mg/kg))”; in series [1] (4 h after injection), “— (A dash indicates the absence of anticonvulsant activity and neurotoxicity at the maximum dose administered (300 mg/kg))”.

For `CCCCOc1ccc(-c2ccnc3ncnn23)cc1` [Compound 6b, 7-(4-Butoxyphenyl)-[1,2,4]triazolo[1,5-a]pyrimidine], the minimal effective dose with MES-induced seizures (mice, 0.5 h after injection) is 100 mg/kg; with MES-induced seizures (mice, 4 h after injection) it was above 300 mg/kg; with PTZ-induced seizures (mice, 0.5 h after injection), 300 mg/kg; in the series with PTZ-induced seizures (mice, 4 h after injection), above 300 mg/kg. Moreover, the “NT screening (rotarod)” value is “— (A dash indicates the absence of anticonvulsant activity and neurotoxicity at the maximum dose administered (300 mg/kg))” in series [1] (0.5 h after injection); “— (A dash indicates the absence of anticonvulsant activity and neurotoxicity at the maximum dose administered (300 mg/kg))” in series [1] (4 h after injection).

As to `Cc1ccc(-c2ccnc3ncnn23)cc1` [Compound 3h, 7-(P-tolyl)-[1,2,4]triazolo[1,5-a]pyrimidine], the minimal effective dose is 300 mg/kg in the series with MES-induced seizures (mice, 0.5 h after injection); above 300 mg/kg with MES-induced seizures (mice, 4 h after injection); 100 mg/kg with PTZ-induced seizures (mice, 0.5 h after injection); above 300 mg/kg with PTZ-induced seizures (mice, 4 h after injection). For the same compound, the “NT screening (rotarod)” value was “— (A dash indicates the absence of anticonvulsant activity and neurotoxicity at the maximum dose administered (300 mg/kg))” in series [1] (0.5 h after injection); “— (A dash indicates the absence of anticonvulsant activity and neurotoxicity at the maximum dose administered (300 mg/kg))” in series [1] (4 h after injection).

As to `c1ccc(COc2ccc(-c3ccnc4ncnn34)cc2)cc1` [Compound 6e, 7-(4-(Benzyloxy)phenyl)-[1,2,4]triazolo[1,5-a]pyrimidine], the minimal effective dose in the series with MES-induced seizures (mice, 0.5 h after injection) is 30 mg/kg; in the series on MES-induced seizures (mice, 4 h after injection), 300 mg/kg; in the series on PTZ-induced seizures (mice, 0.5 h after injection) it was 30 mg/kg; in the series with PTZ-induced seizures (mice, 4 h after injection) it was above 300 mg/kg. For the same compound, the results for the median effective dose (ED50) in the series on MES-induced seizures (setting [3]) and with PTZ-induced seizures (setting [3]) were 38 mg/kg and 28.4 mg/kg, respectively. Also, the “PI MES, protective index (TD50/ED50)” value in the series with MES-induced seizures is listed as 9.6. Further, the “NT screening (rotarod)” value in series [1] (0.5 h after injection) is 300 mg/kg; in series [1] (4 h after injection), “— (A dash indicates the absence of anticonvulsant activity and neurotoxicity at the maximum dose administered (300 mg/kg))”. Besides, in series [2], the TD50 at 30 min was 366 mg/kg. Moreover, in the series with PTZ-induced seizures, the “PI scPTZ, protective index (TD50/ED50)” value was 12.9.
